Data reported in ChEMBL document CHEMBL4825691, “Antimicrobial, modulatory, and antibiofilm activity of tt-farnesol on bacterial and fungal strains of importance to human health” (2021).
Values after ≈ are worked out from the molar mass of the structure shown.

What was measured:
Format in all cases: functional
[1] = test system: Staphylococcus epidermidis; test: Antibacterial activity against Staphylococcus epidermidis ATCC 12228 assessed as inhibition of bacterial growth incubated for 24 hrs by microdilution assay
Staphylococcus aureus = test: Antibacterial activity against Staphylococcus aureus ATCC 29213 assessed as inhibition of bacterial growth incubated for 24 hrs by microdilution assay
Escherichia coli [2] = test: Antibacterial activity against Escherichia coli EAEC I 4913 assessed as inhibition of bacterial growth incubated for 24 hrs by microdilution assay
Escherichia coli [3] = test: Antibacterial activity against Escherichia coli EPEC E234969 assessed as inhibition of bacterial growth incubated for 24 hrs by microdilution assay
Escherichia coli [4] = test: Antibacterial activity against Escherichia coli STEC 2C1 assessed as inhibition of bacterial growth incubated for 24 hrs by microdilution assay
Escherichia coli [5] = test: Antibacterial activity against Escherichia coli EIEC E20851 assessed as inhibition of bacterial growth incubated for 24 hrs by microdilution assay
Escherichia coli [6] = test: Antibacterial activity against Escherichia coli ETEC 2589093 assessed as inhibition of bacterial growth incubated for 24 hrs by microdilution assay
Escherichia coli [7] = test: Antibacterial activity against Escherichia coli EHEC 933 assessed as inhibition of bacterial growth incubated for 24 hrs by microdilution assay
Escherichia coli [8] = test: Antibacterial activity against Escherichia coli EOL 931 assessed as inhibition of bacterial growth incubated for 24 hrs by microdilution assay
[9] = test system: Stenotrophomonas maltophilia; test: Antibacterial activity against Stenotrophomonas maltophilia EM 0104assessed as inhibition of bacterial growth incubated for 24 hrs by microdilution assay
Acinetobacter baumannii = test: Antibacterial activity against Acinetobacter baumannii ATCC 19606 assessed as inhibition of bacterial growth incubated for 24 hrs by microdilution assay; settings: ATCC 19606 = CIP 70.34 = JCM 6841
Proteus mirabilis = test: Antibacterial activity against Proteus mirabilis ATCC 25933 assessed as inhibition of bacterial growth incubated for 24 hrs by microdilution assay
Streptococcus sobrinus = test: Antibacterial activity against Streptococcus sobrinus ATCC 27351 assessed as inhibition of bacterial growth incubated for 24 hrs by microdilution assay
Enterococcus faecalis [10] = test: Antibacterial activity against Enterococcus faecalis ATCC 29212 assessed as inhibition of bacterial growth incubated for 24 hrs by microdilution assay
Streptococcus pyogenes = test: Antibacterial activity against Streptococcus pyogenes ATCC 19615 assessed as inhibition of bacterial growth incubated for 24 hrs by microdilution assay
Streptococcus mutans = test: Antibacterial activity against Streptococcus mutans ATCC 25175 assessed as inhibition of bacterial growth incubated for 24 hrs by microdilution assay
Serratia marcescens = test: Antibacterial activity against Serratia marcescens ATCC 13880 assessed as inhibition of bacterial growth incubated for 24 hrs by microdilution assay; settings: subsp. marcescens ATCC 13880
Enterococcus durans = test: Antibacterial activity against Enterococcus durans BIO 0114 assessed as inhibition of bacterial growth incubated for 24 hrs by microdilution assay
Salmonella typhimurium = test: Antibacterial activity against Salmonella enterica subsp. enterica serovar Typhimurium ATCC 14028 assessed as inhibition of bacterial growth incubated for 24 hrs by microdilution assay
Escherichia coli [11] = test: Antibacterial activity against Escherichia coli ATCC 25922 assessed as inhibition of bacterial growth incubated for 24 hrs by microdilution assay
Shigella flexneri = test: Antibacterial activity against Shigella flexneri CCCD S006 assessed as inhibition of bacterial growth incubated for 24 hrs by microdilution assay
Streptococcus agalactiae = test: Antibacterial activity against Streptococcus agalactiae ATCC 13813 assessed as inhibition of bacterial growth incubated for 24 hrs by microdilution assay
Enterococcus faecalis [12] = test: Antibacterial activity against Enterococcus faecalis ATCC 6569 assessed as inhibition of bacterial growth incubated for 24 hrs by microdilution assay
Klebsiella pneumoniae [13] = test: Antibacterial activity against Klebsiella pneumoniae ATCC 1705 assessed as inhibition of bacterial growth incubated for 24 hrs by microdilution assay
Klebsiella pneumoniae [14] = test: Antibacterial activity against Klebsiella pneumoniae ATCC 700603 assessed as inhibition of bacterial growth incubated for 24 hrs by microdilution assay

`Cc1onc(-c2ccccc2)c1C(=O)N[C@@H]1C(=O)N2[C@@H]1SC(C)(C)[C@@H]2C(=O)O` [OXACILLIN] was tested, and the MIC [1] was 0.25 µg/mL (≈ 0.623 µM) and the MIC (Staphylococcus aureus) was 0.25 µg/mL (≈ 0.623 µM).
Compound `C[C@@H](O)[C@H]1C(=O)N2C(C(=O)O)=C(S[C@@H]3CN[C@H](C(=O)N(C)C)C3)[C@H](C)[C@H]12` [MEROPENEM] has an MIC (Escherichia coli [2]) of 0.625 µg/mL (≈ 1.63 µM), an MIC (Escherichia coli [3]) of 0.625 µg/mL (≈ 1.63 µM) and an MIC (Escherichia coli [4]) of 0.625 µg/mL (≈ 1.63 µM). For the same compound, the MIC (Escherichia coli [5]) was 0.625 µg/mL (≈ 1.63 µM), the MIC (Escherichia coli [6]) was 0.625 µg/mL (≈ 1.63 µM) and the MIC (Escherichia coli [7]) was 0.625 µg/mL (≈ 1.63 µM). It also gave an MIC (Escherichia coli [8]) of 0.625 µg/mL (≈ 1.63 µM).
For `CN(C)c1ccc(O)c2c1C[C@H]1C[C@H]3[C@H](N(C)C)C(O)=C(C(N)=O)C(=O)[C@@]3(O)C(O)=C1C2=O` [MINOCYCLINE], the MIC [9] was 2 µg/mL (≈ 4.37 µM) and the MIC (Acinetobacter baumannii) was 2 µg/mL (≈ 4.37 µM).
For `O=C(O)c1cn(C2CC2)c2cc(N3CCNCC3)c(F)cc2c1=O` [CIPROFLOXACIN], the MIC (Proteus mirabilis) was 0.25 µg/mL (≈ 0.754 µM).
For `CC1(C)S[C@@H]2[C@H](NC(=O)[C@H](N)c3ccccc3)C(=O)N2[C@H]1C(=O)O` [AMPICILLIN], the MIC (Streptococcus sobrinus) was 0.125 µg/mL (≈ 0.358 µM), the MIC (Enterococcus faecalis [10]) was 4 µg/mL (≈ 11.4 µM) and the MIC (Streptococcus pyogenes) was 0.0625 µg/mL (≈ 0.179 µM). It also gave an MIC (Streptococcus mutans) of 0.5 µg/mL (≈ 1.43 µM), an MIC (Serratia marcescens) of 4 µg/mL (≈ 11.4 µM) and an MIC (Enterococcus durans) of 4 µg/mL (≈ 11.4 µM). It also gave an MIC (Salmonella typhimurium) of 4 µg/mL (≈ 11.4 µM), an MIC (Escherichia coli [11]) of 4 µg/mL (≈ 11.4 µM) and an MIC (Shigella flexneri) of 4 µg/mL (≈ 11.4 µM). For the same compound, the MIC (Streptococcus agalactiae) was 0.25 µg/mL (≈ 0.715 µM) and the MIC (Enterococcus faecalis [12]) was 4 µg/mL (≈ 11.4 µM).
With COLISTIN the MIC (Klebsiella pneumoniae [13]) was 1 µg/mL and the MIC (Klebsiella pneumoniae [14]) was 1 µg/mL.
